According to patent US4704464A, “Tumor retarding (1-benzyl-ethylenediamine)-platin (II)-complexes” (ASTA-Werke Aktiengesellschaft Chemische Fabrik, priority 1985, dated 1987):

Experiment: solubility
Assay type: physicochemical
Details: Example 37 complexes

D,L-dibenzenesulfonate-(1-benzylethylenediamine)-platinum II [dibenzenesulfonate complexes]
water solubility: good water solubility
